Reference: patent US20240317727A1 (Duke University, priority 2018, published 2024)

Molecular target: T1, recombinant HSF1 DNA-binding domain (DBD) (Homo sapiens, UniProt Q00613)
T1 sequence (Q00613 15-120): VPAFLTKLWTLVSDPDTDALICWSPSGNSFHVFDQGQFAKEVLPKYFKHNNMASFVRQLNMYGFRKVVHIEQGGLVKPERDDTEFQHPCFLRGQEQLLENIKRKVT
Assay: Differential Scanning Fluorimetry (DSF), HSF1 DBD melting temperature
Details: 5 μM HSF1 DBD, 25PM Compound, positive = stabilizes, negative = destabilizes HSF1

| Structure (SMILES) | ΔTm at 25 µM (Table 1) [°C] | further results |
| --- | --- | --- |
| O=C(Nc1ccc(F)cc1)Nc1ccc(Cl)c(O)c1 [Compound 0103, 1-(4-chloro-3-hydroxyphenyl)-3-(4-fluorophenyl)urea] | 4.7 | – |
| O=C(N/N=C/c1ccc(Br)s1)c1[nH]cc2ccccc12 [Compound 0069] | 8.06 | – |
| O=[N+]([O-])c1cc(C(F)(F)F)cc([N+](=O)[O-])c1O/N=C1\CSCc2ccccc21 [Compound 0008] | -4.56 | – |
| CC(C)(C)c1ccc(-c2nnc(SCC(=O)NCc3ccccc3)n2-c2ccccc2)cc1 [Compound 0084] | -8.96 | – |
| O=C(Nc1ccc(S(=O)(=O)N2CCCCC2)cc1)c1cccc(Cl)c1 [Compound 0097] | 3.43 | – |
| N#Cc1cc(NC(=O)Nc2ccc(F)cc2)ccc1Cl [Compound 0083, 1-(4-chloro-3-cyano-phenyl)-3-(4-fluorophenyl) urea] | 2 | – |
| O=C(Nc1ccc(Cl)c(Cl)c1)Nc1ccc(Cl)c([N+](=O)[O-])c1 [Compound 044, 1-(4-chloro-3-nitrophenyl)-3-(3,4-dichlorophenyl)urea] | – | ΔTm at 25 µM (Table 3): 2.33 °C |
| O=C(Nc1cccc(F)c1)Nc1ccc(Cl)c([N+](=O)[O-])c1 [Compound 0020, 1-(4-chloro-3-nitrophenyl)-3-(3-fluorophenyl)urea] | 5.2 | – |
| O=[N+]([O-])c1cc(C(F)(F)F)cc([N+](=O)[O-])c1Oc1ccc(C2SCCS2)cc1 [Compound 0062] | -6.9 | – |
| N=C(Nc1ccc(F)cc1)Nc1ccc(Cl)c(C(F)(F)F)c1 [Compound 0032, 1-[4-chloro-3-(trifluoromethyl)phenyl]-3-(4-fluorophenyl)guanidine] | 0.75 | – |
| O=S1(=O)N=C(Nc2ccc(F)cc2)C(Nc2ccc(Cl)c(C(F)(F)F)c2)=N1 [Compound 0033, N3-[4-chloro-3-(trifluoromethyl)phenyl]-N4-(4-fluorophenyl)-1,1-dioxo-1,2,5-thiadiazole-3,4-diamine] | 1.9 | – |
| O=[N+]([O-])c1cc(C(F)(F)F)cc([N+](=O)[O-])c1Oc1ccc(C2CCCCC2)cc1 [Compound 0102] | -6.23 | – |
| O=C(Nc1cccc(Cl)c1)Nc1cccc([N+](=O)[O-])c1 [Compound 0078, 1-(3-chlorophenyl)-3-(3-nitrophenyl)urea] | 2.25 | – |
| O=C(Nc1ccc(F)c(F)c1)Nc1ccc(Cl)c([N+](=O)[O-])c1 [Compound 0034, 1-(4-chloro-3-nitrophenyl)-3-(3,4-difluorophenyl)urea] | 5.7 | – |
| O=c1c(Nc2ccc(F)c(F)c2)c(Nc2ccc(Cl)c(S(=O)(=O)C(F)(F)F)c2)c1=O [Compound 016, 3-[4-chloro-3-(trifluoromethylsulfonyl)anilino]-4-(3,4-difluoroanilino)cyclobut-3-ene-1,2-dione] | – | ΔTm at 25 µM (Table 3): 2.75 °C |
| CSc1nnc(SC2=CC(=O)CC(c3ccccc3)C2)s1 (centres unmarked) [Compound 0031] | -6.23 | – |
| Cc1cc(Oc2c([N+](=O)[O-])cc(C(F)(F)F)cc2[N+](=O)[O-])c2c(Cl)ccc(C)c2n1 [Compound 0111] | -5.21 | – |
| Cc1cc(/C=N/Nc2nc3ccccc3s2)cc(C)c1O [Compound 0114] | 0.49 | – |
| O=C(Nc1ccc(F)cc1)Nc1ccc(Br)c(C(F)(F)F)c1 [Compound 005, 1-(4-bromo-3-(trifluoromethyl)phenyl)-3-(4-fluorophenyl)urea] | – | ΔTm at 25 µM (Table 3): 5.1 °C |
| O=C(COc1ccc(Cl)cc1Cl)N/N=C/c1c[nH]c2ccccc12 [Compound 0098] | 4.93 | – |

| Structure (SMILES) | ΔTm at 25 µM (Table 1) [°C] | further results |
| --- | --- | --- |
| O=[N+]([O-])c1cc(/C=N/Nc2ccc(Br)c(Cl)c2)cs1 [Compound 0038] | 7.27 | – |
| O=C(CSc1nnc(-c2ccccc2)n1-c1ccc(F)cc1)NCc1ccccc1 [Compound 0057] | -10.5 | – |
| O=C(Nc1ccc(F)cc1)Nc1cccc(C(F)(F)F)c1 [Compound 003, 1-(4-fluorophenyl)-3-(3-(trifluoromethyl)phenyl)urea] | – | ΔTm at 25 µM (Table 3): 1.78 °C |
| COc1ccc(NC(=O)Nc2ccc(C)cc2)cc1 [Compound 0011, 1-(4-methoxyphenyl)-3-(p-tolyl)urea] | 2.61 | – |
| O=C(Nc1ccccc1)Nc1ccc(Cl)c(Cl)c1 [Compound 0022, 1-(3,4-dichlorophenyl)-3-phenylurea] | 2.78 | – |
| Cc1ccc(-n2c(SCC(=O)NC(C)c3ccccc3)nnc2-c2ccccc2)cc1 (centres unmarked) [Compound 0030] | -8.57 | – |
| Cc1ccc(NC(=O)Nc2ccc(Cl)c([N+](=O)[O-])c2)cc1 [Compound 0046, 1-(4-chloro-3-nitrophenyl)-3-(p-tolyl)urea] | 4.3 | – |
| COC(=O)c1cc(C#N)c(Sc2c([N+](=O)[O-])cc(C(F)(F)F)cc2[N+](=O)[O-])nc1C(OC)OC [Compound 0013] | -7.4 | – |
| CC(=O)Nc1cc(NC(=O)Nc2ccc(F)cc2)ccc1Cl [Compound 0095, N-[2-chloro-5-[(4-fluorophenyl)carbamoylamino]phenyl]acetamide] | 0.67 | – |
| O=C(Nc1ccc(Cl)cc1)Nc1ccc(Cl)cc1 [Compound 0018, 1,3-bis(4-chlorophenyl)urea] | 2.44 | – |
| O=C(Nc1cc(Cl)cc(Cl)c1)Nc1cc(-c2cccs2)n[nH]1 [Compound 0074] | 2.61 | – |
| CSc1ccc(Oc2c([N+](=O)[O-])cc(C(F)(F)F)cc2[N+](=O)[O-])cc1 [Compound 0116] | -5.56 | – |
| Cc1cc([N+](=O)[O-])cc([N+](=O)[O-])c1Sc1ncc2ccccn12 [Compound 0093] | -3.44 | – |
| O=c1c(Nc2ccc(F)cc2)c(Nc2ccc(Cl)c(S(=O)(=O)C(F)(F)F)c2)c1=O [Compound 0112, 3-[4-chloro-3-(trifluoromethylsulfonyl)anilino]-4-(4-fluoroanilino)cyclobut-3-ene-1,2-dione] | 2.08 | – |
| O=C(Nc1ccc(F)cc1)Nc1ccc(Cl)c([N+](=O)[O-])c1 [Compound 017, 1-(4-chloro-3-nitrophenyl)-3-(4-fluorophenyl)urea] | – | ΔTm at 25 µM (Table 3): 3 °C |
| O=C(Nc1cccc(Cl)c1)Nc1ccc(Cl)c([N+](=O)[O-])c1 [Compound 0061, 1-(4-chloro-3-nitrophenyl)-3-(3-chlorophenyl)urea] | 2.94 | – |
| c1ccc(-c2ccc(C(c3ccccc3)n3ccnc3)cc2)cc1 (centres unmarked) [Compound 0081] | -3.6 | – |
| Cc1cccc(NC(=O)Nc2cccc(Cl)c2)c1 [Compound 0063, 1-(3-chlorophenyl)-3-(m-tolyl)urea] | 2.5 | – |
| CCOC(=O)N1CCN(C2=Nc3cc(Cl)ccc3C(C)C2)CC1 (centres unmarked) [Compound 0043] | -9.07 | – |
| O=C(Nc1cccc(Cl)c1)O/N=C/c1ccc(F)cc1 [Compound 0051] | – | ΔTm (Table 1): −6.91 |

| Structure (SMILES) | ΔTm at 25 µM (Table 1) [°C] | further results |
| --- | --- | --- |
| Cc1ccc(C(=O)/C=C(\c2ccccc2)N2CCCCC2)cc1 [Compound 0071] | -6.24 | – |
| O=C(Nc1cccc([N+](=O)[O-])c1)Nc1ccc(F)cc1C(=O)O [Compound 0106, 5-fluoro-2-(3-(3-nitrophenyl)ureido)benzoic acid] | 3.28 | – |
| O=c1c(Nc2ccc(F)c(F)c2)c(Nc2ccc(Cl)c(S(=O)(=O)C(F)(F)F)c2)c1=O [Compound 0016, 3-[4-chloro-3-(trifluoromethylsulfonyl)anilino]-4-(3,4-difluoroanilino)cyclobut-3-ene-1,2-dione] | 2.75 | – |
| O=C(Nc1cccc(Cl)c1)Nc1ccc(Cl)c([N+](=O)[O-])c1 [Compound 061, 1-(4-chloro-3-nitrophenyl)-3-(3-chlorophenyl)urea] | – | ΔTm at 25 µM (Table 3): 2.94 °C |
| CC(C)c1ccc2c(c1)c(SC(C)(C)C)c(CC(C)(C)C(=O)O)n2Cc1ccc(Cl)cc1 [Compound 0109] | -9.02 | – |
| O=C(Nc1ccc(Cl)c([N+](=O)[O-])c1)Nc1ccc(F)cc1C1(C(F)(F)F)N=N1 [Compound 0079, 1-(4-chloro-3-nitro-phenyl)-3-[4-fluoro-2-[3-(trifluoromethyl)diazirin-3-yl]phenyl]urea] | 2.25 | – |
| COc1ccc(NC(=O)Nc2ccc(Cl)cc2)cc1 [Compound 036, 1-(4-chlorophenyl)-3-(4-methoxyphenyl)urea] | – | ΔTm at 25 µM (Table 3): 2.61 °C |
| O=C(Nc1ccc(Cl)c(Cl)c1)Nc1ccc(Cl)c([N+](=O)[O-])c1 [Compound 0044, 1-(4-chloro-3-nitrophenyl)-3-(3,4-dichlorophenyl)urea] | 2.33 | – |
| Cc1cccc(NC(=O)Nc2ccc(Cl)c([N+](=O)[O-])c2)c1 [Compound 0026, 1-(4-chloro-3-nitrophenyl)-3-(m-tolyl)urea] | 5.75 | – |
| Cc1ccc(NC(=O)Nc2ccc(Br)c(C(F)(F)F)c2)cc1 [Compound 0075, 1-(4-bromo-3-(trifluoromethyl)phenyl)-3-(p-tolyl)urea] | 2.61 | – |
| O=C(O)C1=CC(=C(c2ccc(O)c(C(=O)O)c2)c2ccc(O)c(C(=O)O)c2)C=CC1=O [Compound 0086] | -11.5 | – |
| COc1ccc(CSc2ccc([N+](=O)[O-])c3nonc23)cc1 [Compound 0089] | -5.73 | – |
| Cc1cc(C(C#N)c2ccc(Cl)cc2)c(Cl)cc1NC(=O)c1cc(I)cc(I)c1O (centres unmarked) [Compound 0040] | -7.95 | – |
| CCOC(=O)CCc1ccc(Oc2c([N+](=O)[O-])cc(C(F)(F)F)cc2[N+](=O)[O-])cc1 [Compound 0072] | 3.39 | – |
| Cc1ccc(/C=N/NC(=O)c2c[nH]c3ccccc23)s1 [Compound 0082] | 3.9 | – |
| CCOC(=O)c1sc(Sc2ccc([N+](=O)[O-])cc2[N+](=O)[O-])nc1C [Compound 0108] | -4.19 | – |
| O=C(Nc1ccc(F)cc1)Nc1cccc(Cl)c1 [Compound 060, 1-(3-chlorophenyl)-3-(4-fluorophenyl)urea] | – | ΔTm at 25 µM (Table 3): 2.5 °C |
| O=C(Nc1cccc(Cl)c1)Nc1cccc([N+](=O)[O-])c1 [Compound 078, 1-(3-chlorophenyl)-3-(3-nitrophenyl)urea] | – | ΔTm at 25 µM (Table 3): 2.5 °C |
| O=c1c(Nc2ccc(F)cc2)c(Nc2ccc(Cl)c([N+](=O)[O-])c2)c1=O [Compound 0002, 3-(4-chloro-3-nitro-anilino)-4-(4-fluoroanilino)cyclobut-3-ene-1,2-dione] | 1.9 | – |
